In patent publication EP0079397A1, “Asymmetrically substituted (2,4,6-triodoanilides) of dicarboxylic acids, their preparation and X-ray contrast agents containing them” (SCHERING AKTIENGESELLSCHAFT, priority 1981, dated 1983):
Where two headings read alike, the source gives them in different places.

Columns and labels:
Leber des Hundes = experiment: Maximum enrichment in dog liver by computed tomography; settings: 360 mg Jod/kg i.v.; for maximale Anreicherung in der Leber des Hundes: meglumine salt solutions 180 mg Jod/ml, CT up to 90 min
Experimental: (§2) Die Werte wurden an gesunden weiblichen und männlichen Beagle-Hunden (Züchter: Schering) im Gewicht von 9-14 kg ermittelt.
(§3) Die Megluminsalzlösungen enthielten 180 mg Jod/ml.
(§4) Die Scanzeit betrug 20 Sekunden, die Röhrenspannung 120 kV. Bei einer Bildmatrix von 320 x 320 Elementen betrug die Standardabweichung vom Mittelwert eines normierten Wasserphantoms 1,6 % (d.h. + 8 EU = EMI-Units.
(§5) Die Auswertung der Computertomogramme stets des gleichen Leberareals erfolgte mit Hilfe der Auswerteeinheit "IVC" der Fa. EMI.

Leber [1] = settings: man; cited from earlier work
Leber [2] = settings: dog; cited from earlier work
in vivo [3] = settings: dog, iv
Experimental: as §2, §3, §4, §5

[4] = Protein binding to human serum; assay type: in vitro ADME; settings: at ca. 1,2 mg Jod/ml, meglumine salts, read-out: Proteinbindung an Humanserum (converted)
Ratte [5] = experiment: Neural tolerance after pericerebral injection in rats (method of Valzelli); assay type: in vivo; settings: 0,04 ml injected, ca. 100 g rats, 24 h observation: excitation, posture anomalies, coma, death
Experimental: (§1) • 1) Injektion der Kontrastmittel als Megluminsalzlösungen mit 180 mg Jod/ml mit einer Geschwindigkeit von 0,8 ml/min bei 100 g schweren männlichen und weiblichen Ratten. • 2) Männlichen und weiblichen Ratten im Gewicht von etwa 100 g wurden in leichter Äthernarkose je 0,04 ml unterschiedlich konzentrierter Kontrastmittellösungen nach der Methode von Valzelli durch eine natürliche Knochenspalte des Schädels zwischen Joch- und Hinterhauptbein intrazerebral injiziert. Die Injektion erfolgte mit einer Hamilton Spritze 710 N, bei der die Einstichtiefe auf 10 mm begrenzt ist. Je Präparat wurden mindestens 4 Dosierungen an 10 Tieren untersucht. Als Wirkungskriterien wurden über den Zeitraum von 24 Stunden Exzitationszustände, schwere Haltungsanomalien, Koma und Tod bewertet. • 3) Bei grundsätzlich gleicher Versuchsanlage wie unter 2) beschrieben, wurden 200-250 g schweren Ratten die Kontrastmittel in die Cisterna suboccipitalis injiziert. Die Kontrastmittel wurden mit 3%iger Mannit-lösung verdünnt, um den osmotischen Druck anzupassen. • 4) Ratten (ca. 150 g Körpergewicht) wurde in Ithernarkose ein Polyäthylenschlauch in den Ductus choledochus eingebunden. […]

in vivo [6] = experiment: in vivo; set-up: species or system Ratte; settings: rat, iv, 60 mg/kg
Experimental: • 1) Injektion der Kontrastmittel als Megluminsalzlösungen mit 180 mg Jod/ml mit einer Geschwindigkeit von 0,8 ml/min bei 100 g schweren männlichen und weiblichen Ratten. • 2) Männlichen und weiblichen Ratten im Gewicht von etwa 100 g wurden in leichter Äthernarkose je 0,04 ml unterschiedlich konzentrierter Kontrastmittellösungen nach der Methode von Valzelli durch eine natürliche Knochenspalte des Schädels zwischen Joch- und Hinterhauptbein intrazerebral injiziert. Die Injektion erfolgte mit einer Hamilton Spritze 710 N, bei der die Einstichtiefe auf 10 mm begrenzt ist. Je Präparat wurden mindestens 4 Dosierungen an 10 Tieren untersucht. Als Wirkungskriterien wurden über den Zeitraum von 24 Stunden Exzitationszustände, schwere Haltungsanomalien, Koma und Tod bewertet. • 3) Bei grundsätzlich gleicher Versuchsanlage wie unter 2) beschrieben, wurden 200-250 g schweren Ratten die Kontrastmittel in die Cisterna suboccipitalis injiziert. Die Kontrastmittel wurden mit 3%iger Mannit-lösung verdünnt, um den osmotischen Druck anzupassen. • 4) Ratten (ca. 150 g Körpergewicht) wurde in Ithernarkose ein Polyäthylenschlauch in den Ductus choledochus eingebunden. Etwa eine Stunde nachdem die Tiere aus der Narkose erwacht waren, wurden die Kontrastmittel in einer Dosis von 60 mg Jod/kg intravenös injiziert und die Galle bis 3 Stunden nach der Injektion fraktioniert gesammelt. • 5) Intakten Ratten von etwa 100 g Körpergewicht wurde 20 Minuten vor der Verabreichung des Kontrastmittels 5 ml Wasser und dann in 1-stündigem Abstand nach der Verabreichung der Prüfsubstanzen 3 mal je 2 ml Wasser oral verabreicht. bis 3 Stunden nach der i.v. Injektion des Kontrastmittels in einer Dosis von 60 mg Jod/kg wurde der Harn quantitativ gesammelt. • 4), 5) die Messung des Kontrastmittels erfolgte entweder aufgrund der ^131J-Aktivität in den Proben oder bei nicht radioaktiv markierten Kontrastmitteln mit Hilfe der Röntgenfluoreszenz des Jods.

Ratte [7] = experiment: Acute intravenous toxicity (DL50) in rats; assay type: in vivo; settings: meglumine salt solutions 180 mg Jod/ml, 0,8 ml/min, 100 g rats
Experimental: as §1

[8] = Partition coefficient butanol/water; assay type: physicochemical; settings: meglumine salts
Ratte [9] = experiment: Neural tolerance after intracisternal injection in rats; assay type: in vivo; settings: injection into Cisterna suboccipitalis, 200-250 g rats, diluted with 3% mannitol solution
Experimental: as §1

SMILES | maximale Anreicherung in der Leber des Hundes (Leber des Hundes) | maximale Anreicherung in der Leber des Hundes, min. p. appl. (Leber des Hundes; time of maximum enrichment) [min. p. appl.] | Konzentration in der Leber (Leber [1]) | Konzentration in der Leber (Leber [2]) | Tmax (in vivo [3]) [h] | fraction unbound [4] | Ratte, pericerebral, ED50 (Ratte [5]) | dose excreted at 0.5 h (in vivo [6]) [%] | dose excreted at 3 h (in vivo [6]) [%] | DL50, i.v., Ratte (Ratte [7]) | Verteilungskoeffizient Butanol/Wasser pH 7.4 [8] | Ratte, intrazisternal, ED50 (Ratte [9])
CNC(=O)c1c(I)c(NC(=O)CCCCCCCCC(=O)Nc2c(I)c(C(=O)O)c(I)c(C(=O)NC)c2I)c(I)c(C(=O)O)c1I [D, Iosefamsäure] | 22,8 EMI-Units | 80 | nicht mehr genügende | noch ausreichende |  |  |  |  |  |  |  | 
CNC(=O)c1c(I)c(NC(=O)COCC(=O)N(C)c2c(I)cc(I)c(C(=O)O)c2I)c(I)c(C(=O)O)c1I [E, 3-Oxapentan-disäure-l-(3-carboxy-2,4,6-trijod-N-methylanilid)-5-(3-carboxy-5N-methylcarbamoyl-2,4,6-trijodanilid)] | 42,1 EMI-Units |  |  |  | 1.5 |  |  |  |  |  |  | 
O=C(CCCCC(=O)Nc1c(I)cc(I)c(C(=O)O)c1I)Nc1c(I)cc(I)c(C(=O)O)c1I [B, Iodipamid] |  |  |  |  |  | 0.23 | 6,35 (5,11-7,44) mg Jod/kg | 59.4 | 91.5 | 2,6 g Jod/kg | 0,278 ± 0,008 | 1,07 (0,54-1,83) mg Jod/kg
CNC(=O)c1c(I)c(NC(=O)CCCCC(=O)Nc2c(I)cc(I)c(C(=O)O)c2I)c(I)c(C(=O)O)c1I [Verbindung A, Hexandisäure-1-(3-carboxy-2,4,6-trijod-anilid)-6-(3-carboxy-5-N-methylcarbamoyl-2,4,6-trijodanilid)] |  |  |  |  |  | 0.57 | 17,1 (11,8-23,6) mg Jod/kg | 61.3 | 85.9 | 5,5 g Jod/kg | 0,083 ± 0,001 | 15,6 (11,5-21,1) mg Jod/kg
